Assay results published in ChEMBL document CHEMBL6078659, “Comprehensive Insights into the Development of Antitoxoplasmosis Drugs: Current Advances, Obstacles, and Future Perspectives” (J Med Chem, 2024).

Experiments:
Assay type in all cases: functional, organism-based
Toxoplasma gondii [1] = assay: Antiparasitic activity against Toxoplasma gondii RH infected in human HFF cells
Toxoplasma gondii [2] = assay: Antiparasitic activity against Toxoplasma gondii assessed as parasitic growth inhibition
Toxoplasma gondii [3] = assay: Antiparasitic activity against Toxoplasma gondii

CCCCCCCCCCCCc1c(C)n(O)c2ccccc2c1=O
IC50 (Toxoplasma gondii [1]): 0.0008 µM

COC(=O)Cn1c(C(=O)NS(=O)(=O)C2=Cc3ccccc3C2)cc2cc(OC)ccc21
IC50 (Toxoplasma gondii [1]): 0.13 µM

C=C(C)C1CC=C(C)C(=O)C1 (centres undefined) [CARVONE]
IC50 (Toxoplasma gondii [1]): 16.1 µg/mL

C=CC(C)(O)CCC=C(C)C (centres undefined) [LINALOOL]
IC50 (Toxoplasma gondii [1]): 4.48 µg/mL

CC1=C(c2nccs2)O[C@@H]2O[C@@]3(C)CC[C@H]4[C@H](C)CC[C@@H]1[C@@]24OO3
IC50 (Toxoplasma gondii [1]): 1 µM

C/C=C/C1=C(O)C(=O)c2ccccc2C1=O
IC50 (Toxoplasma gondii [2]): 3.01 µM
IC50 (Toxoplasma gondii [1]): 3.01 µM

Cc1nc[nH]c1-c1nnc(Nc2ccc(I)cc2)s1
IC50 (Toxoplasma gondii [1]): 4.76 µg/mL

COc1cc(/C=C/C(=O)C(=Cc2ccc(F)c(F)c2)C(=O)/C=C/c2ccc(O)c(OC)c2)ccc1O
IC50 (Toxoplasma gondii [3]): 0.8 µM

CC1=CCC(C(C)(C)O)CC1 (centres undefined)
IC50 (Toxoplasma gondii [1]): 4.4 µg/mL

Cc1[nH]c2c(c(=O)c1-c1ccc(Oc3ccc(OC(F)(F)F)cc3)cc1)CCCC2
IC50 (Toxoplasma gondii [1]): 0.00012 µM

COc1cc(/C=C/C(=O)CC(=O)/C=C/c2ccc(O)c(OC)c2)ccc1O [CURCUMIN]
IC50 (Toxoplasma gondii [3]): 38.3 µM

Oc1ccccc1 [PHENOL]
IC50 (Toxoplasma gondii [1]): 4.77 µg/mL

C/C(=N\Nc1nc(-c2ccc([N+](=O)[O-])cc2)cs1)c1ccc(Nc2nc(N)nc(N)n2)cc1
IC50 (Toxoplasma gondii [1]): 14.9 µg/mL

O=C1C(O)=C([C@H]2CC[C@H](c3ccc(Cl)cc3)CC2)C(=O)c2ccccc21 [ATOVAQUONE]
IC50 (Toxoplasma gondii [2]): 0.07 µM

COC(=O)C1C(C)=CCCC1(C)C (centres undefined)
IC50 (Toxoplasma gondii [1]): 242 µg/mL

O=C1C2=C(C(=O)c3ccccc31)[C@H]1Oc3ccc(Br)cc3[C@H]1CO2
IC50 (Toxoplasma gondii [2]): 2.6 µM
IC50 (Toxoplasma gondii [1]): 2.6 µM

COc1c(N2C[C@@H]3CCCN[C@@H]3C2)c(F)cc2c(=O)c(C(=O)O)cn(C3CC3)c12 [MOXIFLOXACIN]
IC50 (Toxoplasma gondii [2]): 5.1 µg/mL

COc1cc(C=O)ccc1O [VANILLIN]
IC50 (Toxoplasma gondii [3]): 645 µg/mL

CC(C)=CCC/C(C)=C\C=O
IC50 (Toxoplasma gondii [1]): 24 µg/mL

CCCCCCCCCCCCCCCCC1(C)SC(=O)C(CCC)=C1O (centres undefined)
IC50 (Toxoplasma gondii [3]): 2 µM

COc1ccc(/C=C/C(=O)C(=Cc2ccc(F)c(F)c2)C(=O)/C=C/c2ccc(OC)c(OC)c2)cc1OC
IC50 (Toxoplasma gondii [3]): 0.33 µM

Oc1ccc(/C=C/c2cc(O)cc(O)c2)cc1 [RESVERATROL]
IC50 (Toxoplasma gondii [3]): 54.6 µM

CC(C)CCCc1ccc2c(c1)C(=O)C=C(N1CCCC1)C2=O
IC50 (Toxoplasma gondii [2]): 0.32 µM
IC50 (Toxoplasma gondii [1]): 0.32 µM

CC(C)=CCC/C(C)=C/CO [GERANIOL]
IC50 (Toxoplasma gondii [3]): 4 µg/mL

COc1c(N2CCNC(C)C2)c(F)cc2c(=O)c(C(=O)O)cn(C3CC3)c12 (centres undefined) [GATIFLOXACIN]
IC50 (Toxoplasma gondii [2]): 4.1 µg/mL

Cc1c(F)c(N2CCNC(C)C2)cc2c1c(=O)c(C(=O)O)cn2C1CC1 (centres undefined) [GREPAFLOXACIN]
IC50 (Toxoplasma gondii [2]): 2.4 µg/mL

N[C@@H]1[C@H]2CN(c3nc4c(cc3F)c(=O)c(C(=O)O)cn4-c3ccc(F)cc3F)C[C@@H]12 [TROVAFLOXACIN]
IC50 (Toxoplasma gondii [2]): 0.4 µg/mL

O=C1C2=C(C(=O)c3ccccc31)[C@H]1Oc3ccccc3[C@H]1CO2 [PTEROCARPANQUINONE]
IC50 (Toxoplasma gondii [2]): 2.5 µM
IC50 (Toxoplasma gondii [1]): 2.5 µM

Oc1cc(Cl)ccc1Oc1ccc(Cl)cc1Cl [TRICLOSAN]
IC50 (Toxoplasma gondii [3]): 3 µM

COc1cc(C2c3cc(c(O)cc3O)C(c3ccc(O)c(OC)c3)c3cc(c(O)cc3O)C(c3ccc(O)c(OC)c3)c3cc(c(O)cc3O)C(c3ccc(O)c(OC)c3)c3cc2c(O)cc3O)ccc1O (centres undefined)
IC50 (Toxoplasma gondii [3]): > 2000 µg/mL

CC(C)=CCC1=C(O)C(=O)c2ccccc2C1=O [LAPACHOL]
IC50 (Toxoplasma gondii [2]): 4.88 µM
IC50 (Toxoplasma gondii [1]): 0.4 µg/mL

CCCCCCCCCCCCCCCCC1(C)SC(=O)C(Cc2ccccc2)=C1O (centres undefined)
IC50 (Toxoplasma gondii [3]): 6 µM

O=C(NNC(=S)Nc1ccc(F)cc1)c1cccs1
IC50 (Toxoplasma gondii [2]): 33.2 µM

C=C(C)C1CC=C(C)CC1 (centres undefined)
IC50 (Toxoplasma gondii [1]): 241 µg/mL

O=C1C2=C(C(=O)c3ccccc31)[C@H]1Oc3ccc(Cl)cc3[C@H]1CO2
IC50 (Toxoplasma gondii [2]): < 10 µM
IC50 (Toxoplasma gondii [1]): < 1 µM

CCCCCCCCCCCCc1c(C)c(=O)c2ccccc2n1O [COMPOUND A]
IC50 (Toxoplasma gondii [1]): 0.0004 µM

C[C@@H]1CC[C@H]2[C@@H](C)C(=O)O[C@@H]3O[C@@]4(C)CC[C@@H]1[C@]32OO4 [ARTEMISININ]
IC50 (Toxoplasma gondii [1]): 1.7 µM

Cc1[nH]c2cc(F)cc(F)c2c(=O)c1-c1ccc(Oc2ccc(OC(F)(F)F)cc2)cc1
IC50 (Toxoplasma gondii [1]): 0.005 µM
